Drawing on ChEMBL document CHEMBL1139637, “Synthesis, X-ray crystallographic analysis, and antitumor activity of 1-acyl-3,6-disubstituted phenyl-1,4-dihydro-1,2,4,5-tetrazines” (2005), this text covers Inhibition ratio for eight compounds.

Test [1] deals with P388. Briefly: Inhibition ratio against the growth of P-388 cells at 10e-5 mol/L concentration determined by MTT method. The class given is functional, Mus musculus. Background: Tetrazolium dyes change colour on reduction, which living cells bring about.
Test [2] has as its system A549. Briefly: Inhibition ratio against the growth of A-549 cells at 10e-4 mol/L concentration determined by SRB method. Format: functional, Homo sapiens. A general note: Sulforhodamine B stains cellular protein and so reports cell mass.
The subject of test [3] is A549. Description: Inhibition ratio against the growth of A-549 cells at 10e-6 mol/L concentration determined by SRB method. Format: functional, Homo sapiens.
The test system of test [4] is A549. Briefly: Inhibition ratio against the growth of A-549 cells at 10e-7 mol/L concentration determined by SRB method. The class given is functional, Homo sapiens.
For test [5], the system named is P388. Description: Inhibition ratio against the growth of P-388 cells at 10e-8 mol/L concentration determined by MTT method. Format: functional, Mus musculus.
The test system of test [6] is P388. Description: Inhibition ratio against the growth of P-388 cells at 10e-7 mol/L concentration determined by MTT method. Format: functional, Mus musculus.
The subject of test [7] is P388. Briefly: Inhibition ratio against the growth of P-388 cells at 10e-4 mol/L concentration determined by MTT method. Format: functional, Mus musculus.
For test [8], the system named is A549. Description: Inhibition ratio against the growth of A-549 cells at 10e-5 mol/L concentration determined by SRB method. Format: functional, Homo sapiens.
For test [9], the system named is A549. Description: Inhibition ratio against the growth of A-549 cells at 10e-8 mol/L concentration determined by SRB method. Format: functional, Homo sapiens.
For test [10], the system named is P388. Briefly: Inhibition ratio against the growth of P-388 cells at 10e-6 mol/L concentration determined by MTT method. Format: functional, Mus musculus.

On to `CC(=O)N1N=C(c2ccccc2)NN=C1c1ccccc1`, for which the Inhibition ratio in the test with P388 [1] worked out at 10.9; in the test with A549 [2], 85.1; in the test on A549 [3], 0; in the test on A549 [4], 0; in the test with P388 [5], 9.2; in the test on P388 [6] it was 5.5. The Inhibition ratio in the test with P388 [7] came out at 62.7; with A549 [8], 0; in the test with A549 [9] it was 0; with P388 [10] it was 6.6.

With `CC(C)C(=O)N1N=C(c2ccccc2)NN=C1c1ccccc1`, the Inhibition ratio in the test with P388 [1] was 61.1; in the test on A549 [2], 83.8; with A549 [3] it was 38.7; in the test on A549 [4], 29.6; in the test on P388 [5], 46.9; in the test with P388 [6], 24.9. The Inhibition ratio with P388 [7] turned out to be 82.5; in the test with A549 [8], 46.6; in the test with A549 [9], 29.5; in the test with P388 [10], 52.

With `CC(C)C(=O)N1N=C(c2ccc(C(F)(F)F)cc2)NN=C1c1ccc(C(F)(F)F)cc1`, the Inhibition ratio worked out at 26.9 with P388 [1]; 79.8 in the test on A549 [2]; 0 with A549 [3]; 0 with A549 [4]; 13.4 in the test with P388 [5]; 16.2 in the test on P388 [6]. Also, the Inhibition ratio with P388 [7] is listed as 42.2; in the test with A549 [8], 21; in the test on A549 [9], 0; in the test on P388 [10], 15.

`CC(=O)N1N=C(c2ccc(C(F)(F)F)cc2)NN=C1c1ccc(C(F)(F)F)cc1`: the Inhibition ratio amounted to 21.5 in the test with P388 [1]; 91.1 in the test with A549 [2]; 0 in the test with A549 [3]; 0 in the test with A549 [4]; 0 with P388 [5]; 5 in the test with P388 [6]. Moreover, the Inhibition ratio with P388 [7] worked out at 50.6; in the test with A549 [8] it was 63.6; in the test on A549 [9], 0; with P388 [10], 1.1.

For the compound `CCC(=O)N1N=C(c2ccccc2)NN=C1c1ccccc1`, the Inhibition ratio was found to be 9.8 in the test with P388 [1]; 71.5 in the test on A549 [2]; 6.2 in the test on A549 [3]; 12.3 with A549 [4]; 8.5 in the test with P388 [5]; 7.7 in the test on P388 [6]. Besides, the Inhibition ratio turned out to be 30.9 in the test with P388 [7], 11.1 in the test on A549 [8], 0 in the test on A549 [9] and 7.6 in the test on P388 [10].

In the case of `O=C(CCl)N1N=C(c2ccc(C(F)(F)F)cc2)NN=C1c1ccc(C(F)(F)F)cc1`, the Inhibition ratio with P388 [1] is on record as 49.4; in the test with A549 [2] it was 95.5; in the test with A549 [3], 0; with A549 [4], 0; in the test on P388 [5] it was 0; in the test with P388 [6], 11.3. The Inhibition ratio in the test on P388 [7] is listed as 98.4; with A549 [8], 64.6; with A549 [9], 0; with P388 [10], 2.2.

In the case of `CCC(=O)N1N=C(c2ccc(C(F)(F)F)cc2)NN=C1c1ccc(C(F)(F)F)cc1`, the Inhibition ratio in the test with P388 [1] is recorded as 21.1; in the test on A549 [2] it was 84.7; in the test with A549 [3], 21.7; in the test on A549 [4], 0; with P388 [5], 0; in the test with P388 [6], 6.3. Besides, the Inhibition ratio with P388 [7] is on record as 68; in the test on A549 [8], 48.1; in the test with A549 [9], 9; in the test with P388 [10], 6.7.

Consider `O=C(CCl)N1N=C(c2ccccc2)NN=C1c1ccccc1`, for which the Inhibition ratio was 100 in the test on P388 [1]; 95.4 in the test with A549 [2]; 35.3 in the test on A549 [3]; 4.1 with A549 [4]; 0 with P388 [5]; 3.6 in the test with P388 [6]. Also, the Inhibition ratio is 99.1 in the test with P388 [7], 95.8 in the test with A549 [8], 13 with A549 [9] and 3.9 in the test with P388 [10].
